From patent US8455461B2, “Compositions containing a synergic mixture of polyols and xyloglucanes as phytosanitary and bio-fertilising products” (Elicityl, priority 2007, dated 2013) come the findings set out here.

The subject of experiment [1] is Cabernet-Sauvignon vine plants. Description: Frost-resistance of young vine plants, Cabernet-Sauvignon (foliar spraying, cold stress, foliar necroses). The class given is in vivo. The procedure: (§1) Plants originating from different vine varieties: the Chardonnay and Cabernet-Sauvignon varieties are used. Each sample, composed of 5 to 21 plants, is treated by foliar spraying at different vegetative stages on the BBCH scale with a mixture containing the xyloglucan elicitor, heptasaccharide XFGol or heptamaloxyloglucan, in solution at variable doses combined or not combined with sorbitol; the spraying of 2.5 ml of solution per plant is carried out using a sprayer (deviation of +/−1%). After use of the elicitor, the plants were exposed to cold stress of variable intensity and duration. After exposure to the cold, the plants are placed in a climatic chamber at 20° C. with a 12-hour day/night alternation. The appearance of the leaves is observed 24 hours and 72 hours after removal from the cold. The effects of the cold are evaluated by observing the foliar necroses induced by frost and the plants are kept for several months in order to monitor their subsequent development. The results are expressed by the protection index c (%)=100−P; P, being the proportion of foliar necroses. The results are also expressed in gain: [formula]

The next experiment concerns Chardonnay vine plants. Kind of experiment: Frost-resistance of young vine plants, Chardonnay (foliar spraying, cold stress, foliar necroses). The class given is in vivo. Here is the method: as §1

Regarding `OC[C@@H](O)[C@@H](O)[C@H](O)[C@@H](O)CO` [sorbitol], the “effect of sorbitol on frost protection” value is “without effect” in experiment [1] (Cabernet-Sauvignon, 0.1% sorbitol, when the elicitor itself has no effect) and “without effect” in the experiment on Chardonnay vine plants (0.1% sorbitol, when the elicitor itself has no effect).

With `CC1OC(OC2C(OC3C(OCC4OC(OC(C(O)CO)C(O)C(O)CO)C(O)C(O)C4OC4OC(COC5OCC(O)C(O)C5O)C(O)C(O)C4O)OCC(O)C3O)OC(CO)C(O)C2O)C(O)C(O)C1O` (stereo not drawn) [Elicitor, heptamaloxyloglucan], the Gain % in experiment [1] (Cabernet-Sauvignon second series, 500 nM elicitor, vs dry control) came out at 200%; in the experiment with Chardonnay vine plants (all physiological stages combined, 5 nM elicitor, vs dry control) it was 0%. In addition, the “If % average (protection index)” value is recorded as 60% in experiment [1] (Cabernet-Sauvignon second series, all physiological stages combined, 500 nM elicitor) and 40% in the experiment with Chardonnay vine plants (all physiological stages combined, 5 nM elicitor).
